Assay results taken from patent US20070208173A1, “CRYSTALLINE HYDRATES OF CEFDINIR CALCIUM SALT” (priority 2006, published 2007).

Tests used:
Assay type in all cases: physicochemical
[1] = Moisture Sorption/Desorption
Description: (§1) Cefdinir, calcium salt pentahydrate is stable at temperatures between about 25° C. and about 55° C.

Stability to temperature = conditions: temperatures between about 25° C. and about 55° C.
Description: as §1

Solubility in solvents = assay: Solubility in solvents
Description: as §1

## C=CC1=C(C(=O)[O-])N2C(=O)[C@@H](NC(=O)/C(=N\O)c3csc(N)n3)[C@H]2SC1.C=CC1=C(C(=O)[O-])N2C(=O)[C@@H](NC(=O)/C(=N\O)c3csc(N)n3)[C@H]2SC1.O.O.O.O.O.[Ca+2] (single isomer, unassigned) [Cefdinir, calcium salt pentahydrate, calcium (6R-(6α,7β(Z)))-7-(((2-amino-1,3-thiazol-4-yl)(hydroxyimino)acetyl)amino)-3-ethenyl-8-oxo-5-thia-1-azabicyclo[4.2.0]oct-2-ene-2-carboxylate (cefdinir, calcium salt, syn-isomer) pentahydrate]
[1]; Time 0.1 min, 24.9 ° C., Rel. Humid. 51.63 (start)
  Weight: 6.2888 mg
[1]; Time 32.6 min, 25.0 ° C., Rel. Humid. 4.83
  Weight: 6.2448 mg
[1]; Time 48.6 min, 25.0 ° C., Rel. Humid. 14.82
  Weight: 6.2605 mg
[1]; Time 61.7 min, 25.0 ° C., Rel. Humid. 24.85
  Weight: 6.2704 mg
[1]; Time 74.6 min, 25.0 ° C., Rel. Humid. 34.82
  Weight: 6.2782 mg
[1]; Time 87.6 min, 24.9 ° C., Rel. Humid. 44.75
  Weight: 6.2849 mg
[1]; Time 100.6 min, 25.0 ° C., Rel. Humid. 54.93
  Weight: 6.2910 mg
[1]; Time 113.6 min, 25.0 ° C., Rel. Humid. 64.86
  Weight: 6.2957 mg
[1]; Time 125.2 min, 25.0 ° C., Rel. Humid. 74.81
  Weight: 6.3005 mg
[1]; Time 138.9 min, 25.0 ° C., Rel. Humid. 84.80
  Weight: 6.3064 mg
[1]; Time 220.7 min, 25.1 ° C., Rel. Humid. 94.58
  Weight: 6.3638 mg
[1]; Time 241.5 min, 25.1 ° C., Rel. Humid. 85.41 (desorption)
  Weight: 6.3265 mg
[1]; Time 256.2 min, 25.1 ° C., Rel. Humid. 75.18 (desorption)
  Weight: 6.3087 mg
[1]; Time 271.2 min, 25.1 ° C., Rel. Humid. 65.07 (desorption)
  Weight: 6.3015 mg
[1]; Time 284.1 min, 25.1 ° C., Rel. Humid. 55.11 (desorption)
  Weight: 6.2965 mg
[1]; Time 300.4 min, 25.1 ° C., Rel. Humid. 45.16 (desorption)
  Weight: 6.2899 mg
[1]; Time 313.1 min, 25.1 ° C., Rel. Humid. 35.08 (desorption)
  Weight: 6.2827 mg
[1]; Time 326.1 min, 25.0 ° C., Rel. Humid. 25.12 (desorption)
  Weight: 6.2745 mg
[1]; Time 338.7 min, 25.0 ° C., Rel. Humid. 15.13 (desorption)
  Weight: 6.2650 mg
[1]; Time 360.9 min, 25.0 ° C., Rel. Humid. 5.03 (desorption)
  Weight: 6.2484 mg
Stability to temperature
  stability at temperature: stable
Solubility in solvents; acetone
  solubility in acetone: less than 1 mg/mL
Solubility in solvents; acetonitrile
  solubility in acetonitrile: less than 1 mg/mL
Solubility in solvents; dichloromethane
  solubility in dichloromethane: less than 1 mg/mL
Solubility in solvents; dimethylsulfoxide
  solubility in dimethylsulfoxide: greater than 96 mg/mL
Solubility in solvents; ethanol
  solubility in ethanol: less than 1 mg/mL
Solubility in solvents; methanol
  solubility in methanol: less than 1 mg/mL
Solubility in solvents; water
  solubility in water: about 3 mg/mL
